Patent publication US12617773B2, “Azetidin-3-ylmethanol derivatives as CCR6 receptor modulators” (Idorsia Pharmaceuticals Ltd, priority 2020, dated 2026)

Biological target: T1, human CCR6 (Homo sapiens, UniProt P51684)
T1 construct: expressed in transfected cells; host or cells: HEK-293
T1 sequence (P51684 1-374): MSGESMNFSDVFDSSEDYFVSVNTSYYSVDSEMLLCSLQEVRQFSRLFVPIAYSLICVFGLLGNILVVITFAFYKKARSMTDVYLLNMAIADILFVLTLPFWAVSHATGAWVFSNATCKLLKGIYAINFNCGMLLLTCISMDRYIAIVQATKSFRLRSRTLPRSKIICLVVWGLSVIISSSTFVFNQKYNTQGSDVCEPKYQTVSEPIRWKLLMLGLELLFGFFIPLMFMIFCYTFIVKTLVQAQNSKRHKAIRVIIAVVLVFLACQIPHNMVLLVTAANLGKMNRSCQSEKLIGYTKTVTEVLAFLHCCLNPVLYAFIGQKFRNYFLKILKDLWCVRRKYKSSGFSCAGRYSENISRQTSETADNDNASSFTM
Test: FLIPR assay (inhibition of CCL20-induced calcium signal)
Assay type: cell-based
Conditions: FLIPR IC50 (nM), HEK-293 cells expressing human CCR6; mean values where determined several times
Method in brief: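 IC50 values come from baseline-corrected peak calcium fluorescence after agonist. The agonist was CCL20 at 10 nM final, added to engineered human CCR6 HEK-293 cells following a 30-min, room-temperature, dark preincubation with serially diluted compound. Readings were taken in a fluorometric imaging plate reader.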

Compound	IC50 [nM]
CCc1ccc([C@](O)(c2cncc(N3CC4CC(C3)O4)c2)C2(C)CN(C)C2)cc1 [Example 243]	211

Same assay, conditions: HEK-293 cells expressing human CCR6; mean values where determined several times; read-out: FLIPR IC50

Compound	IC50 [nM]
CC(C)c1ccc([C@](O)(c2cncc(N3CC4(CC5(CCC5)C4)OC3=O)c2)C2(C)CN(C)C2)cc1 [Example 202]	29.9
CC(C)c1ccc([C@](O)(c2cncc(N3CC4(CC(C5CC5)C4)OC3=O)c2)C2(C)CN(C)C2)cc1 (some centres unmarked) [Example 203]	64.9
CC(C)c1ccc([C@](O)(c2cncc(N3CC4(CC(C)(C)C4)OC3=O)c2)C2(C)CN(C)C2)cc1 [Example 204]	48.2
CC(C)c1ccc([C@](O)(c2cncc(N3CC(c4ccccc4)CC3=O)c2)C2(C)CN(C)C2)cc1 (some centres unmarked) [Example 205]	26.9
CC(C)c1ccc([C@](O)(c2cncc(N3CCC(C(C)C)C3=O)c2)C2(C)CN(C)C2)cc1 (some centres unmarked) [Example 208]	38.4
CC(C)c1ccc([C@](O)(c2cncc(N3CC(C)(C)CC3=O)c2)C2(C)CN(C)C2)cc1 [Example 209]	205
CC(C)c1ccc([C@](O)(c2cncc(N3CC4(CCCC4)CC3=O)c2)C2(C)CN(C)C2)cc1 [Example 211]	50.1
CC(C)c1ccc([C@](O)(c2cncc(N3CCC4(CCC4)C3=O)c2)C2(C)CN(C)C2)cc1 [Example 212]	70.8
CC(C)c1ccc([C@](O)(c2cncc(N3CC4(CCOCC4)CC3=O)c2)C2(C)CN(C)C2)cc1 [Example 213]	459
CC(C)c1ccc([C@](O)(c2cncc(N3CCC(C4CCOCC4)C3=O)c2)C2(C)CN(C)C2)cc1 (some centres unmarked) [Example 214]	184
CC(C)c1ccc([C@](O)(c2cncc(N3CCC4(CCCCC4)C3=O)c2)C2(C)CN(C)C2)cc1 [Example 215]	50.9
CC(C)c1ccc([C@](O)(c2cncc(N3CCC4(CCOCC4)C3=O)c2)C2(C)CN(C)C2)cc1 [Example 216]	476
CC(C)C[C@H]1CC(=O)N(c2cncc([C@@](O)(c3ccc(C(C)C)cc3)C3(C)CN(C)C3)c2)C1 [Example 217]	43.3
CC(C)c1ccc([C@](O)(c2cncc(N3CC(C4CC4)CC3=O)c2)C2(C)CN(C)C2)cc1 (some centres unmarked) [Example 218]	60.4
CC(C)c1ccc([C@](O)(c2cncc(N3CC(C(F)(F)F)CC3=O)c2)C2(C)CN(C)C2)cc1 (some centres unmarked) [Example 219]	135
COCCC1CCN(c2cncc([C@@](O)(c3ccc(C(C)C)cc3)C3(C)CN(C)C3)c2)C1=O (some centres unmarked) [Example 220]	214
COCCC1CC(=O)N(c2cncc([C@@](O)(c3ccc(C(C)C)cc3)C3(C)CN(C)C3)c2)C1 (some centres unmarked) [Example 221]	350
CC(C)c1ccc([C@](O)(c2cnnc(N3CCCC3=O)c2)C2(C)CN(C)C2)cc1 [Example 222, 1-{5-[(R)-(1,3-Dimethyl-azetidin-3-yl)-hydroxy-(4-isopropyl-phenyl)-methyl]-pyridazin-3-yl}-pyrrolidin-2-one]	164
CC(C)c1ccc(C(O)(c2cncc(N3CC[C@H](C(C)C)C3)c2)C2(C)CN(C)C2)cc1 (stereo partly drawn) [Example 223, (1,3-Dimethyl-azetidin-3-yl)-(4-isopropyl-phenyl)-[5-((R)-3-isopropyl-pyrrolidin-1-yl)-pyridin-3-yl]-methanol]	29
CC(C)c1ccc([C@](O)(c2cncc(N3C[C@@H](C)O[C@@H](C)C3)c2)C2(C)CN(C)C2)cc1 [Example 224]	48.5

Compound	IC50 [nM]
CC(C)c1ccc([C@](O)(c2cncc(N3C[C@H](C)O[C@@H](C)C3)c2)C2(C)CN(C)C2)cc1 [Example 228]	44.6
CC(C)c1ccc([C@](O)(c2cncc(N3C[C@@H](C)O[C@H](C)C3)c2)C2(C)CN(C)C2)cc1 [Example 229]	59.1
Cc1noc(C2CCN(c3cncc([C@@](O)(c4ccc(C(C)C)cc4)C4(C)CN(C)C4)c3)C2)n1 (some centres unmarked) [Example 230]	36.7
Cc1csc(C2CCN(c3cncc([C@@](O)(c4ccc(C(C)C)cc4)C4(C)CN(C)C4)c3)C2)n1 (some centres unmarked) [Example 231]	14.9
CC(C)c1ccc([C@](O)(c2cncc(N3CCC(c4ccccc4)C3)c2)C2(C)CN(C)C2)cc1 (some centres unmarked) [Example 232]	46.7
CC(C)c1ccc([C@](O)(c2cncc(N3CCC(C)(C)C3)c2)C2(C)CN(C)C2)cc1 [Example 233]	29.7
CC(C)c1ccc([C@](O)(c2cncc(N3C[C@@H]4C[C@H]3CO4)c2)C2(C)CN(C)C2)cc1 [Example 234]	123
CC(C)c1ccc([C@](O)(c2cncc(N3CC(F)(F)OC(F)(F)C3)c2)C2(C)CN(C)C2)cc1 [Example 235]	23.4
COC[C@H]1CN(c2cncc([C@@](O)(c3ccc(C(C)C)cc3)C3(C)CN(C)C3)c2)CCO1 [Example 236]	210
COC[C@@H]1CN(c2cncc([C@@](O)(c3ccc(C(C)C)cc3)C3(C)CN(C)C3)c2)CCO1 [Example 237]	217
CC(C)c1ccc([C@](O)(c2cncc(N3CCC(C(F)(F)F)C3)c2)C2(C)CN(C)C2)cc1 (some centres unmarked) [Example 238]	22.4
CC(C)c1ccc([C@](O)(c2cncc(N3C[C@H]4C[C@@H]3CO4)c2)C2(C)CN(C)C2)cc1 [Example 239]	283
CC(C)c1ccc([C@](O)(c2cncc(N3C[C@H]4CC[C@@H](C3)O4)c2)C2(C)CN(C)C2)cc1 [Example 240]	82.9
CN1CC(C)([C@](O)(c2ccc(C3(C(F)(F)F)CC3)cc2)c2cncc(N3C[C@@H]4C[C@H]3CO4)c2)C1 [Example 241]	128
CCc1ccc([C@](O)(c2cncc(N3CCCC3)c2)C2(C)CN(C)C2)cc1 [Example 242]	22.1
CCc1ccc([C@](O)(c2cncc(N3C[C@@H]4C[C@H]3CO4)c2)C2(C)CN(C)C2)cc1 [Example 244]	274
CC(C)c1ccc([C@](O)(c2cncc(OCc3ccccc3)c2)C2(C)CN(C)C2)cc1 [Example 245, (R)-(5-Benzyloxy-pyridin-3-yl)-(1,3-dimethyl-azetidin-3-yl)-(4-isopropyl-phenyl)-methanol]	26
CC(C)c1ccc(C(O)(c2cncc(OCCc3ccccn3)c2)C2(C)CN(C)C2)cc1 (centres unmarked) [Example 246, (1,3-Dimethyl-azetidin-3-yl)-(4-isopropyl-phenyl)-[5-(2-pyridin-2-yl-ethoxy)-pyridin-3-yl]-methanol]	33.3
COCCOc1cncc(C(O)(c2ccc(C(C)C)cc2)C2(C)CN(C)C2)c1 (centres unmarked) [Example 247]	250
CC(C)c1ccc(C(O)(c2cncc(OCC3COC3)c2)C2(C)CN(C)C2)cc1 (centres unmarked) [Example 248]	247

Compound	IC50 [nM]
CC(C)c1ccc([C@](O)(c2cncc(OCCCO)c2)C2(C)CN(C)C2)cc1 [Example 249]	78.4
CC(C)Oc1cncc([C@@](O)(c2ccc(C(C)C)cc2)C2(C)CN(C)C2)c1 [Example 250]	10.9
CC(C)c1ccc([C@](O)(c2cncc(OC3CCCCC3)c2)C2(C)CN(C)C2)cc1 [Example 251]	8.25
CC(C)c1ccc([C@](O)(c2cncc(OCC(C)(C)O)c2)C2(C)CN(C)C2)cc1 [Example 252]	238
COC1CCC(Oc2cncc([C@@](O)(c3ccc(C(C)C)cc3)C3(C)CN(C)C3)c2)C1 (some centres unmarked) [Example 253]	13.1
CC(C)c1ccc([C@](O)(c2cncc(OCc3nc(C4CC4)no3)c2)C2(C)CN(C)C2)cc1 [Example 254]	19.3
Cc1nc(C)n(CCOc2cncc([C@@](O)(c3ccc(C(C)C)cc3)C3(C)CN(C)C3)c2)n1 [Example 255]	774
CC(C)c1ccc([C@](O)(c2cncc(OCCC(C)(C)O)c2)C2(C)CN(C)C2)cc1 [Example 256]	57.8
COc1cncc([C@@](O)(c2ccc(C(C)C)cc2)C2(C)CN(C)C2)c1 [Example 257]	87.4
CC(C)c1ccc([C@](O)(c2cncc(OCCOCc3ccccc3)c2)C2(C)CN(C)C2)cc1 [Example 258]	15.5
CC(C)c1ccc([C@](O)(c2cncc(OC3CCOCC3)c2)C2(C)CN(C)C2)cc1 [Example 259]	56.7
CC(C)c1ccc([C@](O)(c2cncc(OCCO)c2)C2(C)CN(C)C2)cc1 [Example 260, 2-{5-[(R)-(1,3-Dimethyl-azetidin-3-yl)-hydroxy-(4-isopropyl-phenyl)-methyl]-pyridin-3-yloxy}-ethanol]	324
CC(C)c1ccc([C@](O)(c2cncc(OC3CCC(O)CC3)c2)C2(C)CN(C)C2)cc1 (stereo partly drawn) [Example 261, 4-{5-[(R)-(1,3-Dimethyl-azetidin-3-yl)-hydroxy-(4-isopropyl-phenyl)-methyl]-pyridin-3-yloxy}-cyclohexanol]	206
CC(C)c1ccc([C@](O)(c2cncc(OC3CCC(C)(O)CC3)c2)C2(C)CN(C)C2)cc1 (stereo partly drawn) [Example 262, 4-{5-[(R)-(1,3-Dimethyl-azetidin-3-yl)-hydroxy-(4-isopropyl-phenyl)-methyl]-pyridin-3-yloxy}-1-methyl-cyclohexanol]	72.6
CN1CC(C)(C(O)(c2ccc(OC(F)(F)F)cc2)c2cnc(Oc3ccccc3)nc2)C1 (centres unmarked) [Example 263]	162
CN1CC(C)(C(O)(c2ccc(OC(F)(F)F)cc2)c2ccc(OCc3ccccc3)nc2)C1 (centres unmarked) [Example 264]	167
CN1CC(C)(C(O)(c2ccc(OC(F)(F)F)cc2)c2cncc(-n3cccn3)c2)C1 (centres unmarked) [Example 265]	90.6
CN1CC(C)(C(O)(c2ccc(OC(F)(F)F)cc2)c2cnc(F)c(N3CCCC3)c2)C1 (centres unmarked) [Example 266, (1,3-Dimethyl-azetidin-3-yl)-(6-fluoro-5-pyrrolidin-1-yl-pyridin-3-yl)-(4-trifluoromethoxy-phenyl)-methanol]	79.1
